From patent US7632840B2, “Quinazoline compounds for the treatment of hyperproliferative disorders” (AstraZeneca AB, priority 2004, dated 2009)

Columns and labels:
KB cells = assay: EGFR driven KB cell proliferation assay, Test (b); type: cell-based; conditions: Homo sapiens
Protocol: Following adhesion to the plate, the cells are treated with or without EGF (final concentration of 1 ng/ml) and with or without compound at a range of concentrations in dimethylsulfoxide (DMSO) (0.1% final) before incubation for 4 days. […] MTT solution was then tipped off, the plate gently tapped dry and the cells dissolved upon the addition of 100 μl of DMSO.
Absorbance of the solubilised cells was read at 540 nm using a Molecular Devices ThermoMax microplate reader. Inhibition of proliferation was expressed as an IC50 value. […] The range of proliferation was calculated from the positive (vehicle plus EGF) and negative (vehicle minus EGF) control values.

EGFR tyrosine kinase = molecular target: T1, EGFR tyrosine kinase (Homo sapiens, UniProt P00533); assay: Protein tyrosine kinase phosphorylation assay, Test (a); type: biochemical; conditions: read-out: 1C50 (nM) Test (a) (Inhibition of EGFR tyrosine kinase protein phosphorylation)
T1 construct: Recombinant intracellular fragments of EGFR, erbB2 and erbB4; made in house; host or cells: baculovirus/Sf21 insect cells (cleared lysate used)
T1 sequence (P00533 669-1210 limits assumed): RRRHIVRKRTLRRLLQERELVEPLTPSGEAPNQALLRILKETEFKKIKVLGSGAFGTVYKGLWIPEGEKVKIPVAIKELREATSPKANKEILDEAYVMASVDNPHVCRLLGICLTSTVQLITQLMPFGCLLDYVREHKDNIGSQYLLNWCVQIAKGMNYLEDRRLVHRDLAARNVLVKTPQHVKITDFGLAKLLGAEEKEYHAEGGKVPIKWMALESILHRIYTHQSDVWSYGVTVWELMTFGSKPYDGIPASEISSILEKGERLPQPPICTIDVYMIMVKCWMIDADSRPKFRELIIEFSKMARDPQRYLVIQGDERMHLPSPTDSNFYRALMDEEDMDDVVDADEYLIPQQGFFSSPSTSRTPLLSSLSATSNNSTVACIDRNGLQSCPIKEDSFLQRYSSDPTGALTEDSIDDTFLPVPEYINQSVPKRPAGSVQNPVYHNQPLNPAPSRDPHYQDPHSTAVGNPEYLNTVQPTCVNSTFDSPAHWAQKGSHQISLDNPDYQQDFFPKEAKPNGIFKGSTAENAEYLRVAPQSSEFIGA
Protocol: Recombinant intracellular fragments of EGFR, erbB2 and erbB4 (accession numbers X00588, X03363 and L07868 respectively) were cloned and expressed in the baculovirus/Sf21 system. Lysates were prepared from these cells by treatment with ice-cold lysis buffer (20 mM N-2-hydroxyethylpiperizine-N′-2-ethanesulfonic acid (HEPES) pH7.5, 150 mM NaCl, 10% glycerol, 1% Triton X-100, 1.5 mM MgCl2, 1 mM ethylene glycol-bis(β-aminoethyl ether) N′,N′,N′,N′-tetraacetic acid (EGTA), plus protease inhibitors and then cleared by centrifugation.
Constitutive kinase activity of these recombinant proteins was determined by their ability to phosphorylate a synthetic peptide (made up of a random co-polymer of Glutamic Acid, Alanine and Tyrosine in the ratio of 6:3:1). […]
The immobilised phospho-peptide product of the reaction was detected by immunological methods. […] After further washing, HRP activity in each well of the plate was measured colorimetrically using 22′-Azino-di-[3-ethylbenzthiazoline sulfonate (6)] diammonium salt crystals (ABTS™ from Roche) as a substrate.
Kinase inhibition for a given compound was expressed as an IC50 value. […] The range of phosphorylation was calculated from the positive (vehicle plus ATP) and negative (vehicle minus ATP) control values.

| Structure (SMILES) | IC50 (KB cells) [nM] | IC50 (EGFR tyrosine kinase) [nM] |
| --- | --- | --- |
| COc1cc2ncnc(Nc3cccc(Cl)c3F)c2cc1CN(C)C1(C(N)=O)CCN(S(C)(=O)=O)CC1 [Example 66, 4-[({4-[(3-chloro-2-fluorophenyl)amino]-7-methoxyquinazolin-6-yl}methyl)(methyl)amino]-1-(methylsulfonyl)piperidine-4-carboxamide] | 91 | – |
| CNC(=O)C1(N(C)Cc2cc3c(Nc4cccc(Cl)c4F)ncnc3cc2OC)CCN(C)CC1 [Example 20, 4-[({4-[(3-chloro-2-fluorophenyl)amino]-7-methoxyquinazolin-6-yl}methyl)(methyl)amino]-N,1-dimethylpiperidine-4-carboxamide] | 36 | 17 |
